The values that follow come from patent US9468661B2, “Pyrrolidine derivatives and their use as complement pathway modulators” (priority 2012, dated 2016).

human factor D, sequence (P00746 26-253): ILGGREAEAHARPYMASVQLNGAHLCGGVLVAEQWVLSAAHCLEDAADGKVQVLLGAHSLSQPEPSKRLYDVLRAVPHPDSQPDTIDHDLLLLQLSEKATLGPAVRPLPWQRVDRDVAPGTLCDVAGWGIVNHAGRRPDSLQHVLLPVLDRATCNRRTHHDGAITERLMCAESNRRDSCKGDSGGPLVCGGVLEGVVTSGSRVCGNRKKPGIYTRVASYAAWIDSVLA

The first assay deals with human factor D (Homo sapiens (Human), UniProt P00746). The assay is described as follows: biochemical. In kind it is biochemical. Particulars: Factor D inhibition data using Method 1; recombinant human factor D 10 nM, substrate Z-Lys-thiobenzyl, fluorescence; read-out: IC50. Here is the method:
Human Complement Factor D Assay: Method 1
Recombinant human factor D (expressed in E. coli and purified using standard methods) at 10 nM concentration is incubated with test compound at various concentrations for 1 hour at room temperature in 0.1 M Hepes buffer, pH 7.5, containing 1 mM MgCl2, 1 M NaCl and 0.05% CHAPS. A synthetic substrate Z-Lys-thiobenzyl and 2,4-dinitrobenzenesulfonyl-fluoresceine are added to final concentrations of 200 μM and 25 μM, respectively. The increase in fluorescence is recorded at excitation of 485 nm and emission at 535 nm in a microplate spectrofluorimeter. IC50 values are calculated from percentage of inhibition of complement factor D-activity as a function of test compound concentration.
As usually defined, the IC50 is the midpoint of a concentration-inhibition curve. With `CC(=O)c1nn(CC(=O)N2[C@@H]3C[C@@H]3C[C@H]2C(=O)NCC2CCCCC2F)c2cnccc12` (mixture of isomers) [Example 16, (1R,3S,5R)-2-[2-(3-Acetyl-pyrazolo[3,4-c]pyridin-1-yl)-acetyl]-2-aza-bicyclo[3.1.0] hexane-3-carboxylic acid (2-fluoro-cyclohexylmethyl)-amide (mixture of 4 diastereomers)], the IC50 was 174 nM.
Same read-out and setting: to `CC(=O)c1nn(CC(=O)N2[C@@H]3C[C@@H]3C[C@H]2C(=O)NCC2CC(C)C2)c2ccc(OCc3ncccn3)cc12` (mixture of isomers) [Example 65, (1R,3S,5R)-2-{2-[3-Acetyl-5-(pyrimidin-2-ylmethoxy)-indazol-1-yl]-acetyl}-2-aza-bicyclo[3.1.0] hexane-3-carboxylic acid (3-methyl-cyclobutylmethyl)-amide (mixture of 4 diastereoisomers)] belongs 20 nM; to `CC(=O)c1nn(CC(=O)N2[C@@H]3C[C@@H]3C[C@H]2C(=O)NCC2CCCC(C)(C)C2)c2cnccc12` (single isomer, unassigned; dia 1) [Example 17], 661 nM.
On to `CC(=O)c1nn(CC(=O)N2[C@@H]3C[C@@H]3C[C@H]2C(=O)NCC2CCCC2(C)C)c2cnccc12` (single isomer, unassigned; dia 1) [Example 19], for which the IC50 came to 1610 nM.
Consider `CC(=O)c1nn(CC(=O)N2[C@@H]3C[C@@H]3C[C@H]2C(=O)NCC2CCCCC2(C)C)c2cnccc12` (single isomer, unassigned; dia 1) [Example 21], for which the IC50 worked out at 118 nM.
Still for that read-out and setting: to `CC1CCCC1CNC(=O)[C@@H]1C[C@H]2C[C@H]2N1C(=O)Cn1nc(C(N)=O)c2ccncc21` (single isomer, unassigned; dia 1) [Example 85] belongs 1410 nM; to `CC1CCCC(CNC(=O)[C@@H]2C[C@H]3C[C@H]3N2C(=O)Cn2nc(C(N)=O)c3ccncc32)C1` (single isomer, unassigned; dia 1) [Example 115], 877 nM; to `CC(=O)c1nn(CC(=O)N2[C@@H]3C[C@@H]3C[C@H]2C(=O)NCC2CCCC(C)C2)c2cnccc12` (single isomer, unassigned; dia 1) [Example 119], 188 nM.
For the molecule `CC(=O)c1nn(CC(=O)N2[C@@H]3C[C@@H]3C[C@H]2C(=O)NCC2CCCC(C)(C)C2)c2cnccc12` (single isomer, unassigned; dia 2) [Example 18], the IC50 was 389 nM.
The same measure, in the same setting: to `CC(=O)c1nn(CC(=O)N2[C@@H]3C[C@@H]3C[C@H]2C(=O)NCC2CCCC2(C)C)c2cnccc12` (single isomer, unassigned; dia 2) [Example 20] belongs 233 nM; to `CC(=O)c1nn(CC(=O)N2[C@@H]3C[C@@H]3C[C@H]2C(=O)NCC2CCCCC2(C)C)c2cnccc12` (single isomer, unassigned; dia 2) [Example 22], 1190 nM.
Consider `CC1CCCC1CNC(=O)[C@@H]1C[C@H]2C[C@H]2N1C(=O)Cn1nc(C(N)=O)c2ccncc21` (single isomer, unassigned; dia 2) [Example 86], for which the IC50 was 610 nM.

Still in this assay, the particulars now being: IC50, Factor D inhibition data using Method 1; recombinant human factor D 10 nM, substrate Z-Lys-thiobenzyl, fluorescence.
As to `NC(=O)c1nn(CC(=O)N2[C@@H]3C[C@@H]3C[C@H]2C(=O)NC(CO)C2CC2(Cl)Cl)c2ccccc12` (single isomer, unassigned; dia 1) [Example 23], the IC50 turned out to be 1610 nM.
Same read-out and setting: then `CC1C(CNC(=O)[C@@H]2C[C@H]3C[C@H]3N2C(=O)Cn2nc(C(N)=O)c3ccccc32)C1(Cl)Cl` (single isomer, unassigned; dia 1) [Example 73, 1-(2-{(1R,3S,5R)-3-[((1R,3R) or (1S,3S)-2,2-Dichloro-3-methyl-cyclopropylmethyl)-carbamoyl]-2-aza-bicyclo[3.1.0]hex-2-yl}-2-oxo-ethyl)-1H-indazole-3-carboxylic acid amide-Dia 1], with 100 nM.
For `CC(=O)c1nn(CC(=O)N2[C@@H]3C[C@@H]3C[C@H]2C(=O)NCC2C(C)C2(Cl)Cl)c2ccc(OCc3ncccn3)cc12` (single isomer, unassigned; dia 1) [Example 75, (1R,3S,5R)-2-{2-[3-Acetyl-5-(pyrimidin-2-ylmethoxy)-indazol-1-yl]-acetyl}-2-aza-bicyclo[3.1.0] hexane-3-carboxylic acid ((1R,3R) or (1S,3S)-2,2-dichloro-3-methyl-cyclopropylmethyl)-amide-Dia 1], the IC50 amounted to 7 nM.
`CC1C(CNC(=O)[C@@H]2C[C@H]3C[C@H]3N2C(=O)Cn2nc(C(N)=O)c3ccccc32)C1(Cl)Cl` (single isomer, unassigned; dia 1) [Example 77, 1-(2-{(1R,3S,5R)-3-[((1R,3S) or (1S,3R)-2,2-Dichloro-3-methyl-cyclopropylmethyl)-carbamoyl]-2-aza-bicyclo[3.1.0]hex-2-yl}-2-oxoethyl)-1H-indazole-3-carboxylic acid amide-Dia 1]: the IC50 came out at 35 nM.
Take `CC1C(CNC(=O)[C@@H]2C[C@H]3C[C@H]3N2C(=O)Cn2nc(C(N)=O)c3ccncc32)C1(Cl)Cl` (single isomer, unassigned; dia 1) [Example 79, 1-(2-{(1R,3S,5R)-3-[((1R,3S) or (1S,3R)-2,2-Dichloro-3-methyl-cyclopropylmethyl)-carbamoyl]-2-aza-bicyclo[3.1.0]hex-2-yl}-2-oxo-ethyl)-1H-pyrazolo[3,4-c]pyridine-3-carboxylic acid amide-Dia 1]: the IC50 turned out to be 229 nM.
Consider `CC1C(CNC(=O)[C@@H]2C[C@H]3C[C@H]3N2C(=O)Cn2nc(C(N)=O)c3ccncc32)C1(Cl)Cl` (single isomer, unassigned; dia 1) [Example 81, 1-(2-{(1R,3S,5R)-3-[((1R,3R) or (1S,3R)-2,2-Dichloro-3-methyl-cyclopropylmethyl)-carbamoyl]-2-aza-bicyclo[3.1.0]hex-2-yI}-2-oxo-ethyl)-1H-pyrazolo[3,4-c]pyridine-3-carboxylic acid amide-Dia 1], for which the IC50 was determined as 21 nM.
Turning to `CC1CCC(CNC(=O)[C@@H]2C[C@H]3C[C@H]3N2C(=O)Cn2nc(C(N)=O)c3ccccc32)C1` (single isomer, unassigned; dia 1) [Example 89], the IC50 amounted to 74 nM.
On the same count and under the same terms, then `CC(=O)c1nn(CC(=O)N2[C@@H]3C[C@@H]3C[C@H]2C(=O)NCC2C(C)C2(Cl)Cl)c2ccc(OCc3ncccn3)cc12` (single isomer, unassigned; dia 1) [Example 108, (1R,3S,5R)-2-{2-[3-Acetyl-5-(pyrimidin-2-ylmethoxy)-indazol-1-yl]-acetyl}-2-aza-bicyclo[3.1.0] hexane-3-carboxylic acid ((1R,3S) or (1S,3R)-2,2-dichloro-3-methyl-cyclopropylmethyl)-amide-Dia 1], with 27 nM; and `NC(=O)c1nn(CC(=O)N2[C@@H]3C[C@@H]3C[C@H]2C(=O)NC(CO)C2CC2(Cl)Cl)c2ccccc12` (single isomer, unassigned; dia 2) [Example 24], with 755 nM.
Same read-out and setting: to `CC(=O)c1nn(CC(=O)N2[C@@H]3C[C@@H]3C[C@H]2C(=O)NC(C)C2CC2(Cl)Cl)c2ccc(OCc3ncccn3)cc12` (single isomer, unassigned; dia 2) [Example 33] belongs 300 nM; to `CC1C(CNC(=O)[C@@H]2C[C@H]3C[C@H]3N2C(=O)Cn2nc(C(N)=O)c3ccccc32)C1(Cl)Cl` (single isomer, unassigned; dia 2) [Example 74, 1-(2-{(1R,3S,5R)-3-[((1R,3R) or (1S,3S)-2,2-Dichloro-3-methyl-cyclopropylmethyl)-carbamoyl]-2-aza-bicyclo[3.1.0]hex-2-yl}-2-oxo-ethyl)-1H-indazole-3-carboxylic acid amide-Dia 2], 12 nM.
Same read-out and setting: to `CC(=O)c1nn(CC(=O)N2[C@@H]3C[C@@H]3C[C@H]2C(=O)NCC2C(C)C2(Cl)Cl)c2ccc(OCc3ncccn3)cc12` (single isomer, unassigned; dia 2) [Example 76, (1R,3S,5R)-2-{2-[3-Acetyl-5-(pyrimidin-2-ylmethoxy)-indazol-1-yl]-acetyl}-2-aza-bicyclo[3.1.0] hexane-3-carboxylic acid ((1R,3R) or (1S,3S)-2,2-dichloro-3-methyl-cyclopropylmethyl)-amide-Dia 2] belongs 3 nM; to `CC1C(CNC(=O)[C@@H]2C[C@H]3C[C@H]3N2C(=O)Cn2nc(C(N)=O)c3ccccc32)C1(Cl)Cl` (single isomer, unassigned; dia 2) [Example 78, 1-(2-{(1R,3S,5R)-3-[((1R,3S) or (1S,3R)-2,2-Dichloro-3-methyl-cyclopropylmethyl)-carbamoyl]-2-aza-bicyclo[3.1.0]hex-2-yl}-2-oxo-ethyl)-1H-indazole-3-carboxylic acid amide-Dia 2], 62 nM; to `CC1C(CNC(=O)[C@@H]2C[C@H]3C[C@H]3N2C(=O)Cn2nc(C(N)=O)c3ccncc32)C1(Cl)Cl` (single isomer, unassigned; dia 2) [Example 80, 1-(2-{(1R,3S,5R)-3-[((1R,3S) or (1S,3R)-2,2-Dichloro-3-methyl-cyclopropylmethyl)-carbamoyl]-2-aza-bicyclo[3.1.0]hex-2-yl}-2-oxo-ethyl)-1H-pyrazolo[3,4-c]pyridine-3-carboxylic acid amide-Dia 2], 98 nM.
Regarding `CC1C(CNC(=O)[C@@H]2C[C@H]3C[C@H]3N2C(=O)Cn2nc(C(N)=O)c3ccncc32)C1(Cl)Cl` (single isomer, unassigned; dia 2) [Example 82, 1-(2-{(1R,3S,5R)-3-[((1R,3R) or (1S,3S)-2,2-Dichloro-3-methyl-cyclopropylmethyl)-carbamoyl]-2-aza-bicyclo[3.1.0]hex-2-yl}-2-oxo-ethyl)-1H-pyrazolo[3,4-c]pyridine-3-carboxylic acid amide-Dia 2], the IC50 was 85 nM.
